Measurements reported in patent US11866450B2, “Modulators of Cystic Fibrosis Transmembrane Conductance regulator, pharmaceutical compositions, methods of treatment, and process for making the modulators” (priority 2018, dated 2024).
Read-outs that look alike come from different tables or passages of the source.

Assays:
[1] = snar bond
[2] = biological target: CFTR-mediated chloride transport (Homo sapiens, UniProt P13569); type: cell-based; details: enteroid cells incubated with test compound 18-24 hours, acute 10 μM forskolin and 300 nM Compound III; for Max. Activity: % of chloride transport with 3 μM Compound A, 3 μM Compound II and 300 nM acute Compound III triple combination control
Outline: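 Human intestinal enteroid cells incubated with compound 18–24 h at 37° C., then membrane potential dye (FLIPR) read 15 min after chloride-free stimulation with 10 μM forskolin, 100 μM IBMX and 300 nM Compound III. AUC expressed as % of triple-combination control (3 μM Compound A, 3 μM Compound II, 300 nM Compound III).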

Chain of CFTR-mediated chloride transport (P13569 whole entry, looked up): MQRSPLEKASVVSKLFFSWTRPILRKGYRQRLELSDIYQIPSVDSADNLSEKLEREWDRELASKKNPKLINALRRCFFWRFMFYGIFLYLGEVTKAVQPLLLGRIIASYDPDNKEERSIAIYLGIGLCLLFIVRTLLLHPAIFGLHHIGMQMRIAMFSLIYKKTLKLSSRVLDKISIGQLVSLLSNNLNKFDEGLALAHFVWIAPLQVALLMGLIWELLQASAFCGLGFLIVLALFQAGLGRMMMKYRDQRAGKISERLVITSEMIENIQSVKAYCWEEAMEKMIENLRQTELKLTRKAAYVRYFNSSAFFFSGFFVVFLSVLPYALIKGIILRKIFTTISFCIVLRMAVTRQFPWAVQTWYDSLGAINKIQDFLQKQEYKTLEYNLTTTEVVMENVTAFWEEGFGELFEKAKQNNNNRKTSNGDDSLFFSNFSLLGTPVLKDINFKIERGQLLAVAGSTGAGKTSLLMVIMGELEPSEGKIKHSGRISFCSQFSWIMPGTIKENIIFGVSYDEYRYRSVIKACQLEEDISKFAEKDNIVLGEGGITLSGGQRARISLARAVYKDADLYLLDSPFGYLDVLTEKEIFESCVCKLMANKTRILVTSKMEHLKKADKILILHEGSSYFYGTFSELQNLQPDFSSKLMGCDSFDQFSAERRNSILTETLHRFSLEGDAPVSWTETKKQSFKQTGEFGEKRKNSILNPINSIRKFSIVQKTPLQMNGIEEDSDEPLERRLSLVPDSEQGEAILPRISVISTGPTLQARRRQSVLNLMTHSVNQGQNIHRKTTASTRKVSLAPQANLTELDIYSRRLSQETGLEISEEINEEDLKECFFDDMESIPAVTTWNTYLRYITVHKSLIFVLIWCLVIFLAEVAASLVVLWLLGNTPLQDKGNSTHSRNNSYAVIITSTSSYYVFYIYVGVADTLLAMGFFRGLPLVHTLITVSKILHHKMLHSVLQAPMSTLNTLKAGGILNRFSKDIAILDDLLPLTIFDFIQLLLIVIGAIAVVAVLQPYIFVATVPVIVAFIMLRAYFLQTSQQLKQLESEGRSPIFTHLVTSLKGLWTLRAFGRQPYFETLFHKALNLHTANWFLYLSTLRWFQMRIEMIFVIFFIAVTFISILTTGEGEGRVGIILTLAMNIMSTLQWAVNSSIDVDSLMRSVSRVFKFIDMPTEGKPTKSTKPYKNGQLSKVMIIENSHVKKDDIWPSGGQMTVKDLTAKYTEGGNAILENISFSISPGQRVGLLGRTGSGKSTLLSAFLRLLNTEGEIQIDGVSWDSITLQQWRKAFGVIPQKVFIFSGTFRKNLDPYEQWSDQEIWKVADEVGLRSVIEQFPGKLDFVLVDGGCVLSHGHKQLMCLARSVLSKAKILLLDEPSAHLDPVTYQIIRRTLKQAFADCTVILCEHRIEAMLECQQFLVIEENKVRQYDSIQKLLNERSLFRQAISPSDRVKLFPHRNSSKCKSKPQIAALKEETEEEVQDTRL

Row | Structure (SMILES) | EC50 [2] [nM] | Max. Activity [2] | further results
1 | CC1(C)CC2CCCCNc3cccc(n3)S(=O)(=O)NC(=O)c3ccc(-n4ccc(OCCC5(C(F)(F)F)CC5)n4)nc3N1C2 (racemic) [Compound 28, 12,12-dimethyl-8-(3-{2-[1-(trifluoromethyl)cyclopropyl]ethoxy}-1H-pyrazol-1-yl)-2λ^6-thia-3,9,11,19,24-pentaazatetracyclo[18.3.1.111,14.05,10]pentacosa-1(23),5,7,9,20(24),21-hexaene-2,2,4-trione] | < 1000 | ++ (++ is 30-60%) | ring closure, isolated yield ([1]; from CC1(C)CC(CCCCNc2cccc(S(=O)(=O)NC(=O)c3ccc(-n4ccc(OCCC5(C(F)(F)F)CC5)n4)nc3Cl)n2)CN1, 16-membered ring, K2CO3/CsF/3A MS, DMSO, 62.4 mM, 150.0 °C, 18.0 h, 2 steps): 60%
2 | CC1(C)CC2CCCOc3cccc(n3)S(=O)(=O)NC(=O)c3ccc(-n4ccc(OCCC5(C(F)(F)F)CC5)n4)nc3N1C2 (racemic) [Compound 40, 12,12-dimethyl-8-(3-{2-[1-(trifluoromethyl)cyclopropyl]ethoxy}-1H-pyrazol-1-yl)-18-oxa-2λ^6-thia-3,9,11,23-tetraazatetracyclo[17.3.1.111,14.05,10]tetracosa-1(22),5,7,9,19(23),20-hexaene-2,2,4-trione] | < 1000 | ++ (++ is 30-60%) | ring closure, isolated yield ([1]; from CC1(C)CC(CCCOc2cccc(S(=O)(=O)NC(=O)c3ccc(-n4ccc(OCCC5(C(F)(F)F)CC5)n4)nc3Cl)n2)CN1, 15-membered ring, K2CO3/CsF/3A MS, DMSO, 37.3 mM, 150.0 °C, 8.0 h): 48%
3 | CC1(C)CC2CCCOc3ccc(cc3)S(=O)(=O)NC(=O)c3ccc(-n4ccc(OCCC5(C(F)(F)F)CC5)n4)nc3N1C2 (racemic) [Compound 88, 12,12-Dimethyl-8-(3-{2-[1-(trifluoromethyl)cyclopropyl]ethoxy}-1H-pyrazol-1-yl)-18-oxa-2λ^6-thia-3,9,11-triazatetracyclo[17.2.2.111,14.05,10]tetracosa-1(21),5,7,9,19,22-hexaene-2,2,4-trione] | < 1000 | ++ (++ is 30-60%) | ring closure, isolated yield ([1]; from CC1(C)CC(CCCOc2ccc(S(=O)(=O)NC(=O)c3ccc(-n4ccc(OCCC5(C(F)(F)F)CC5)n4)nc3Cl)cc2)CN1, 16-membered ring, K2CO3/CsF/3A MS, DMSO, 37.3 mM, 35.0 h): 4%
4 | CC1(C)CC2CCCCOc3ccc(cc3)S(=O)(=O)NC(=O)c3ccc(-n4ccc(OCCC5(C(F)(F)F)CC5)n4)nc3N1C2 (racemic) [Compound 89, 12,12-dimethyl-8-(3-{2-[1-(trifluoromethyl)cyclopropyl]ethoxy}-1H-pyrazol-1-yl)-19-oxa-2λ^6-thia-3,9,11-triazatetracyclo[18.2.2.111,14.05,10]pentacosa-1(22),5,7,9,20,23-hexaene-2,2,4-trione] | < 1000 | ++ (++ is 30-60%) | ring closure, isolated yield ([1]; from CC1(C)CC(CCCCOc2ccc(S(=O)(=O)NC(=O)c3ccc(-n4ccc(OCCC5(C(F)(F)F)CC5)n4)nc3Cl)cc2)CN1, 17-membered ring, K2CO3/CsF/3A MS, DMSO, 36.5 mM, 165.0 °C, 18.0 h): 21%
5 | CC1(C)CCC2CCNc3cccc(n3)S(=O)(=O)NC(=O)c3ccc(-n4ccc(OCCC5(C(F)(F)F)CC5)n4)nc3N21 (racemic) [Compound 108, 8,8-Dimethyl-12-(3-{2-[1-(trifluoromethyl)cyclopropyl]ethoxy}-1H-pyrazol-1-yl)-18λ^6-thia-2,9,11,17,23-pentaazatetracyclo[17.3.1.05,9.010,15]tricosa-1(23),10(15),11,13,19,21-hexaene-16,18,18-trione] | < 1000 | ++ (++ is 30-60%) | ring closure, isolated yield ([1]; from CC(C)(C)OC(=O)N1C(CCNc2cccc(S(=O)(=O)NC(=O)c3ccc(-n4ccc(OCCC5(C(F)(F)F)CC5)n4)nc3Cl)n2)CCC1(C)C, 13-membered ring, TFA (Boc off), CsF/K2CO3/3A MS, DMSO, 84.6 mM, 130.0 °C, 2 steps): 55%
6 | CC1(C)CCC2CCCNc3cccc(n3)S(=O)(=O)NC(=O)c3ccc(-n4ccc(OCCC5(C(F)(F)F)CC5)n4)nc3N21 (stereo not drawn) [Compound 16, 12,12-dimethyl-8-(3-{2-[1-(trifluoromethyl)cyclopropyl]ethoxy}-1H-pyrazol-1-yl)-2λ^6-thia-3,9,11,19,24-pentaazatetracyclo[18.3.1.05,10.011,15]tetracosa-1(23),5,7,9,20(24),21-hexaene-2,2,4-trione] | < 1000 | ++ (++ is 30-60%) | ring closure, isolated yield ([1]; from CC1(C)CCC(CCCNc2cccc(S(=O)(=O)NC(=O)c3ccc(-n4ccc(OCCC5(C(F)(F)F)CC5)n4)nc3Cl)n2)N1, 14-membered ring, K2CO3/CsF, DMSO, 84.1 mM, 150.0 °C): 58%
7 | CC1(C)CC2CNc3cccc(n3)S(=O)(=O)NC(=O)c3ccc(-n4ccc(OCCC5(C(F)(F)F)CC5)n4)nc3N1C2 (stereo not drawn) [Compound 17, 6,6-dimethyl-10-(3-{2-[1-(trifluoromethyl)cyclopropyl]ethoxy}-1H-pyrazol-1-yl)-16λ^6-thia-2,7,9,15,21-pentaazatetracyclo[15.3.1.14,7.08,13]docosa-1(20),8,10,12,17(21),18-hexaene-14,16,16-trione] | 1000 to 3000 | ++ (++ is 30-60%) | ring closure, isolated yield ([1]; from CC(C)(C)OC(=O)N1CC(CNc2cccc(S(=O)(=O)NC(=O)c3ccc(-n4ccc(OCCC5(C(F)(F)F)CC5)n4)nc3Cl)n2)CC1(C)C, 13-membered ring, K2CO3/CsF/3A MS, DMSO, 45.0 mM, 155.0 °C, 2 steps): 57%
8 | CC1(C)CC2CCNc3cccc(n3)S(=O)(=O)NC(=O)c3ccc(-n4ccc(OCCC5(C(F)(F)F)CC5)n4)nc3N1C2 (stereo not drawn) [Compound 20, 7,7-dimethyl-11-(3-{2-[1-(trifluoromethyl)cyclopropyl]ethoxy}-1H-pyrazol-1-yl)-17λ^6-thia-2,8,10,16,22-pentaazatetracyclo[16.3.1.15,8.09,14]tricosa-1(21),9,11,13,18(22),19-hexaene-15,17,17-trione] | < 1000 | +++ (+++ is >60%) | ring closure, isolated yield ([1]; from CC1(C)CC(CCNc2cccc(S(=O)(=O)NC(=O)c3ccc(-n4ccc(OCCC5(C(F)(F)F)CC5)n4)nc3Cl)n2)CN1, 14-membered ring, K2CO3/CsF/3A MS, DMSO, 54.4 mM, 155.0 °C): 43%
9 | CC1(C)CC2CCCCn3ccc(n3)S(=O)(=O)NC(=O)c3ccc(-n4ccc(OCCC5(C(F)(F)F)CC5)n4)nc3N1C2 (stereo not drawn) [Compound 39, 21,21-dimethyl-4-(3-{2-[1-(trifluoromethyl)cyclopropyl]ethoxy}-1H-pyrazol-1-yl)-10λ^6-thia-1,3,9,14,23-pentaazatetracyclo[17.2.1.111,14.02,7]tricosa-2,4,6,11(23),12-pentaene-8,10,10-trione] | 1000 to 3000 | +++ (+++ is >60%) | ring closure, isolated yield ([1]; from CC(C)(C)OC(=O)N1CC(CCCCn2ccc(S(=O)(=O)NC(=O)c3ccc(-n4ccc(OCCC5(C(F)(F)F)CC5)n4)nc3Cl)n2)CC1(C)C, 15-membered ring, HCl (Boc off), K2CO3/CsF/3A MS, DMSO, 63.7 mM, 150.0 °C, 2 steps): 37%
10 | CC1(C)CC2CCCCc3ccc(cc3)S(=O)(=O)NC(=O)c3ccc(-n4ccc(OCCC5(C(F)(F)F)CC5)n4)nc3N1C2 (stereo not drawn) [Compound 52, 12,12-dimethyl-8-(3-{2-[1-(trifluoromethyl)cyclopropyl]ethoxy}-1H-pyrazol-1-yl)-2λ^6-thia-3,9,11-triazatetracyclo[17.2.2.111,14.05,10]tetracosa-1(21),5,7,9,19,22-hexaene-2,2,4-trione] | < 1000 | ++ (++ is 30-60%) | ring closure, isolated yield ([1]; from CC1(C)CC(CCCCc2ccc(S(=O)(=O)NC(=O)c3ccc(-n4ccc(OCCC5(C(F)(F)F)CC5)n4)nc3Cl)cc2)CN1, 16-membered ring, K2CO3/CsF/3A MS, DMSO, 37.4 mM, 155.0 °C): 26%
11 | CC1(C)CC2CCCCc3cccc(c3)S(=O)(=O)NC(=O)c3ccc(-n4ccc(OCCC5(C(F)(F)F)CC5)n4)nc3N1C2 (stereo not drawn) [Compound 53, 12,12-dimethyl-8-(3-{2-[1-(trifluoromethyl)cyclopropyl]ethoxy}-1H-pyrazol-1-yl)-2λ^6-thia-3,9,11-triazatetracyclo[17.3.1.111,14.05,10]tetracosa-1(22),5,7,9,19(23),20-hexaene-2,2,4-trione] | < 1000 | +++ (+++ is >60%) | ring closure, isolated yield ([1]; from CC1(C)CC(CCCCc2cccc(S(=O)(=O)NC(=O)c3ccc(-n4ccc(OCCC5(C(F)(F)F)CC5)n4)nc3Cl)c2)CN1, 15-membered ring, K2CO3/CsF/3A MS, DMSO, 32.0 mM, 165.0 °C, 6.0 h): 51%
12 | CC1(C)C[C@@H]2CCCNc3cccc(n3)S(=O)(=O)NC(=O)c3ccc(-n4ccc(OCCC(C5CC5)C5CC5)n4)nc3N1C2 [Compound 66, (14S)-8-[3-(3,3-dicyclopropylpropoxy)-1H-pyrazol-1-yl]-12,12-dimethyl-2λ^6-thia-3,9,11,18,23-pentaazatetracyclo[17.3.1.111,14.05,10]tetracosa-1(22),5,7,9,19(23),20-hexaene-2,2,4-trione] | < 1000 | +++ (+++ is >60%) | ring closure, isolated yield ([1]; from CC1(C)C[C@H](CCCNc2cccc(S(=O)(=O)NC(=O)c3ccc(-n4ccc(OCCC(C5CC5)C5CC5)n4)nc3Cl)n2)CN1, 15-membered ring, K2CO3/CsF, NMP, 75.7 mM, 150.0 °C, 20.0 h): 63%
13 | CC1(C)CC2CCCCOc3ccc(cn3)S(=O)(=O)NC(=O)c3ccc(-n4ccc(OCCC5(C(F)(F)F)CC5)n4)nc3N1C2 (stereo not drawn) [Compound 94, 12,12-dimethyl-8-(3-{2-[1-(trifluoromethyl)cyclopropyl]ethoxy}-1H-pyrazol-1-yl)-19-oxa-2λ^6-thia-3,9,11,21-tetraazatetracyclo[18.2.2.111,14.05,10]pentacosa-1(23),5,7,9,20(24),21-hexaene-2,2,4-trione] | > 3000 | + (+ is <30%) | ring closure, isolated yield ([1]; from CC(C)(C)OC(=O)N1CC(CCCCOc2ccc(S(=O)(=O)NC(=O)c3ccc(-n4ccc(OCCC5(C(F)(F)F)CC5)n4)nc3Cl)cn2)CC1(C)C, 17-membered ring, HCl (Boc off), K2CO3/CsF/3A MS, DMSO, 59.4 mM, 150.0 °C, 2 steps): 26%
